From patent US6051712A, “Piperidine derivatives having renin inhibiting activity” (Hoffmann-La Roche Inc., priority 1995, dated 2000)
Counter-ions that a name gives are not always drawn.

Each compound was assayed against T1, human renin (Homo sapiens, UniProt P00797) (assay: In vitro test with pure human renin (angiotensin I production from human tetradecapeptide renin substrate, measured by RIA)). Details: not given.
T1 sequence (P00797 67-406): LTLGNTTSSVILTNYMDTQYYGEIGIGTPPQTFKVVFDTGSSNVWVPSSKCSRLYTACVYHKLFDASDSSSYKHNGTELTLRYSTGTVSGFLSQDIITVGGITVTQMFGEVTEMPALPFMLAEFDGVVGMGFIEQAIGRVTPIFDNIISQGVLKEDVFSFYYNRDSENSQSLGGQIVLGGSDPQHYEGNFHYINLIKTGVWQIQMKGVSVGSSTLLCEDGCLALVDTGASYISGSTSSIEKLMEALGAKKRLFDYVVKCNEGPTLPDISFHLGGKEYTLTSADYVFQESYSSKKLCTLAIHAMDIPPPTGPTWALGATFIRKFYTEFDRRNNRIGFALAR
Type: biochemical
Protocol: In vitro test with pure human renin
The test is carried out in Eppendorf test tubes. The incubation mixture consists of (1) 100 μl of human renin in buffer A (0.1M sodium phosphate solution, pH 7.4, containing 0.1% bovine serum albumin, 0.1% sodium azide and 1 mM ethylenediaminetetraacetic acid), sufficient for a renin activity of 2-3 ng of angiotensin l/ml/hr.; (2) 145 μl of buffer A: (3) 30 μl of 10 mM human tetradecapeptide renin substrate (hTD) in 10 mM hydrochloric acid: (4) […] of dimethyl sulphoxide with or without inhibitor and (5) 10 μl of a 0.03 molar solution of hydroxyquinoline sulphate in water.
The samples are incubated for three hours at 37° C. and, respectively, 4° C. in triplicate. 2×100 μl samples per test tube are used in order to measure the production of angiotensin I via RIA (standard radioimmunoassay; clinical assay solid phase kit). […] The production of angiotensin I is determined by the difference between the test at 37° C, and that at 4° C.
The following controls are carried out:
(a) Incubation of hTD samples without renin and without inhibitor at 37° C. and 4° C. The difference between these two values gives the base value of the angiotensin I production.
(b) Incubation of hTD samples with renin, but without inhibitor at 37° C. and 4° C. The difference between these values gives the maximum value of the angiotensin I production.
In each sample the base value of the angiotensin I production is subtracted from the angiotensin I production which is determined. The difference between the maximum value and the base value gives the value of the maximum substrate hydrolysis (=100%) by renin.
The IC50 values are determined from a linear regression curve from a logit-log plot.

| SMILES | IC50 [nM] |
| --- | --- |
| c1ccc(COCCCOc2ccc([C@H]3CCNC[C@@H]3OCc3ccc4ccccc4c3)cc2)cc1 (racemic) [M, (3RS,4RS)-4-[4-(3-benzyloxy-propoxy)-phenyl]-3-(naphthalen-2-ylmethoxy)-piperidine] | 8 |

Same assay, conditions: pure human renin, pH 7.4, three hours at 37° C. (less 4° C.), human tetradecapeptide substrate, angiotensin I by RIA; read-out: IC50 values (concentration of the inhibitor at which the enzymatic activity is inhibited by 50%)

| SMILES | IC50 [nM] |
| --- | --- |
| OCCCO[C@@H]1CNC[C@H](OCc2ccc3ccccc3c2)[C@H]1c1ccc(OCCCOCc2ccccc2)cc1 (racemic) [W, 3-[(3RS,4SR,5SR)-4-[4-(3-benzyloxy-propoxy)-phenyl]-3-(naphthalen-2-ylmethoxy)-piperidin-5-yloxy]-propan-1-ol] | 2 |
| O=C1NCCN1C[C@@H]1CNC[C@H](OCc2ccc3ccccc3c2)[C@H]1c1ccc(OCCCOCc2ccccc2)cc1 (relative stereo) [VV] | 2 |
| COc1cc(CO[C@H]2CNC[C@@H](O)[C@@H]2c2ccc(OCCCOCc3ccccc3)cc2)c(OC)c2ccccc12 (racemic) [S, (3RS,4SR,5SR)-4-[4-(3-benzyloxy-propoxy)-phenyl]-3-(1,4-dimethoxy-naphthalen-2-ylmethoxy)-piperidin-5-ol] | 2 |
| COc1ccccc1COCCCOc1ccc([C@H]2[C@H](O)CNC[C@@H]2OCc2cc(OC)c3ccccc3c2OC)cc1 (racemic) [ZZ, (3RS,4SR,5SR)-3-(1,4-dimethoxy-naphthalen-2-ylmethoxy)-4-[4-[3-(2-methoxy-benzyloxy)-propoxy]-phenyl]-piperidin-5-ol] | 0.03 |
| COc1cc(CO[C@H]2CNC[C@@H](OCc3cc(OC)c(OC)c(OC)c3)[C@@H]2c2ccc(OCCCOCc3ccccc3)cc2)cc(OC)c1OC [MM, (3R,4s,5S)-4-[4-(3-benzyloxy-propoxy)-phenyl]-3,5-bis-(3,4,5-trimethoxy-benzyloxy)-piperidine] | 0.5 |
| OCCCCO[C@@H]1CNC[C@H](OCc2ccc3ccccc3c2)[C@H]1c1ccc(OCCCOCc2ccccc2)cc1 (racemic) [V, 4-[(3RS,4SR,5SR)-4-[4-(3-benzyloxy-propoxy)-phenyl]-3-(naphthalen-2-ylmethoxy)-piperidin-5-yloxy]-butan-1-ol] | 2 |
| CCN(CC)C[C@@H]1CNC[C@H](OCc2ccc3ccccc3c2)[C@H]1c1ccc(OCCCOCc2ccccc2)cc1 (relative stereo) [JJ] | 2 |
| c1ccc(-c2cc(COc3ccc([C@H]4CCNC[C@@H]4OCc4ccc5ccccc5c4)cc3)on2)cc1 (racemic) [F, (3RS,4RS)-3-(naphthalen-2-ylmethoxy)-4-[4-(3-phenyl-isoxazol-5-ylmethoxy)-phenyl]-piperidine trifluoroacetate] | 57 |
| COc1ccccc1COCCCOc1ccc([C@H]2CCNC[C@@H]2OCc2ccc3ccncc3c2)cc1 (racemic) [XX, (3RS,4RS)-3-(isoquinolin-7-ylmethoxy)-4-[4-[3-(2-methoxy-benzyloxy)-propoxy]-phenyl]-piperidine] | 0.8 |
| CCC[C@@H]1CNC[C@H](OCc2cc(OCc3ccccc3)c3ccccc3c2)[C@H]1c1ccc(F)cc1 (racemic) [Compound I, (3RS,4RS,5SR)-3-(4-benzyloxy-naphthalen-2-ylmethoxy)-4-(4-fluoro-phenyl)-5-propyl-piperidine] | 317 |
| COc1ccccc1COc1cc(CO[C@H]2CNCC[C@@H]2c2ccc(OCCOC(=O)c3ccccc3)cc2)cc2ccccc12 (racemic) [C, (3RS,4RS)-2-[4-[3-[4-(2-methoxy-benzyloxy)-naphthalen-2-ylmethoxy]-piperidin-4-yl]-phenoxy]-ethyl benzoate hydrochloride] | 70 |
| c1ccc(SCCCc2ccc([C@H]3CCNC[C@@H]3OCc3ccc4ccccc4c3)cc2)cc1 (racemic) [G, (3RS,4RS)-3-(naphthalen-2-ylmethoxy)-4-[4-(3-phenylsulphanyl-propyl)-phenyl]-piperidine] | 33 |
| c1ccc(COCCCOc2ccc([C@H]3[C@H](Cn4cncn4)CNC[C@@H]3OCc3ccc4ccccc4c3)cc2)cc1 (relative stereo) [NN, (3RS,4RS,5SR)4-[4(3-Benzyloxy-propoxy)-phenyl3-(naphthalen-2-ylmethoxy)-5[1,2,4]triazol1-ylmethyl-piperidine hydrochloride] | 1 |
| O=C(Cc1ccc2ccccc2c1)[C@H]1CNC[C@@H](COCCN2CCOCC2)[C@@H]1c1ccc(OCCCOCc2ccccc2)cc1 (racemic) [KK, 1-[(3RS,4SR,5SR)-4-[4-(3-benzyloxy-propoxy)-phenyl]-5-(2-morpholin-4-yl-ethoxymethyl)-piperidin-3-yl]-2-naphthalen-2-yl-ethanone] | 12 |
| OC[C@@H]1CNC[C@H](OCc2ccc3ccccc3c2)[C@H]1c1ccc(OCCCOCc2ccccc2)cc1 (relative stereo) [HH, (3SR,4RS,5RS)[4[4(3-Benzyloxy-propoxy)-phenyl5-(naphthalen-2-ylmethoxy)-pperidin-3-ylmethanol hydrochloride] | 6 |
| COc1ccccc1COCCCOc1ccc([C@H]2CCNC[C@@H]2OCc2ccc3ccc(=O)[nH]c3c2)cc1 (racemic) [WW, (3RS,4RS)-4-[4-[3-(2-methoxy-benzyloxy)-propoxy]-phenyl]-3-(2-oxo-1,2-dihydro-quinolin-7-ylmethoxy)-piperidine] | 9 |
| CN(C)Cc1ccc2ccc(CO[C@H]3CNCC[C@@H]3c3ccc(OCCCOCc4ccccc4)cc3)cc2c1 (racemic) [QQ, (7-{(3RS,4RS)-4-[4-(3-benzyloxy-propoxy)-phenyl]-piperidin-3-yloxymethyl}-naphthalen-2-ylmethyl)-dimethyl-amine] | 2 |
| Fc1ccc([C@H]2CCNC[C@@H]2OCc2cc(OCc3ccccc3)c3ccccc3c2)cc1 [RR, (3R,4R)3-(4-Benzyloxy-naphthalen-2-ylmethoxy)-4-(4-fluoro-phenyl)-piperidne] | 270 |
| OCC(O)COCc1ccc2ccc(CO[C@H]3CNCC[C@@H]3c3ccc(OCCCOCc4ccccc4)cc3)cc2c1 (mixture of isomers) [T, a mixture of (3RS,4RS)- and (3SR,4SR)-4-[4-(3-benzyloxy-propoxy)-phenyl]-3-[7-[(RS)-2,3-dihydroxy-propoxymethyl]-naphthalen-2-ylmethoxy]-piperidine] | 5 |
| CN1CCN(CCOc2ccc3ccc(CO[C@H]4CNCC[C@@H]4c4ccc(OCCCOCc5ccccc5)cc4)cc3c2)CC1 (racemic) [Q, 1-[2-[7-[(3RS,4RS)-4-[4-(3-benzyloxy-propoxy)-phenyl]-piperidin-3-yloxymethyl]-naphthalen-2-yloxy]-ethyl]-4-methyl-piperazine hydrochloride (1:3)] | 5 |
